The source of these data is US9782427B2, “Methods for treating cancer using TOR kinase inhibitor combination therapy” (Signal Pharmaceuticals, LLC, priority 2013, dated 2017).

In test [1] the test system is HepG2 cells. Put plainly: Anchorage independent growth (colony formation) assay. As to conditions: single agent; for colony formation: 8 days. The test is classed as cell-based, Human. The protocol: (§1) The effect of Compound 1 on anchorage-independent growth (AIG) was assessed by colony formation assay in 2 Human Hepatocellular Carcinoma (“HHC”) cell lines, HepG2 and SK-Hep-1.
(§2) Cell Lines/Cells. Human cell lines HepG2 and SK-Hep-1 cells were obtained from American Type Culture Collection (ATCC; Manassas, Va.). Cells were cultured in DMEM (Dulbecco's Modified Eagle's Medium) (Mediatech; Mannasas, Va.) with 10% Premium FBS (Lonza, Walkersville, Md.).
(§3) (1) Single Agent Colony Formation Assay. Nobel Agar (1.2 grams; BD; Franklin Lakes, N.J.) was placed in a 100-mL sterile bottle. Sterile water (100 mL) was added and microwaved until the agar boiled. Equal volumes of agar and 2×RPMI medium (ECE Scientific; Doylestown, Pa.) were mixed and 300 μL were transferred to each well in a 24-well flat bottom plate (BD; Franklin Lakes, N.J.). Plates were kept at 4° C. until the agar solidified. Cultures of HepG2 and SK-Hep-1 cells were harvested and resuspended in culture medium at 3.6×10^3 cells/mL. Equal volumes of agar, 2×RPMI, and cell suspension (1:1:1) were mixed in a sterile tube and 500 μL/well were immediately transferred into the 24-well plates. Plates were kept at 4° C. until the agar solidified. Culture medium (500 μL) containing compound or DMSO was added to each well (final DMSO concentration for each treatment was 0.2%). Compound 1 was tested at final concentrations of 0.1, 0.3, 1, 3, 10 and 30 μM. 5-AZA was tested at final concentrations of 1, 3 and 10 μM. Cell treatments were set up in triplicate. Cells were incubated for 8-10 days at 37° C. in a 5% CO2 atmosphere. Photographs (2× magnification) of each well were taken using a Nikon DXM1200 Digital Camera and Nikon ACT1 software and saved as a TIFF file. ImageQuant TL (GE Healthcare; Piscataway, N.J.) Colony Count Software was used to count colonies. (2) Combination Study Colony Formation Assay. Nobel Agar (1.2 grams; BD; Franklin Lakes, N.J.) was placed in a 100-mL sterile bottle. Sterile water (100 mL) was added and microwaved until the agar boiled. Equal volumes of agar and 2×RPMI medium (ECE Scientific; Doylestown, Pa.) were mixed and 300 μL were transferred to each well in a 24-well flat bottom plate (BD; Franklin Lakes, N.J.). Plates were kept at 4° C. until the agar solidified. Cultures of HepG2 and SK-Hep-1 cells were harvested and resuspended in culture medium at 3.6×10^3 cells/mL. Equal volumes of agar, 2×RPMI, and cell suspension (1:1:1) were mixed in a sterile tube and 500 μL/well were immediately transferred into the 24-well plates. Plates were kept at 4° C. until the agar solidified. Culture medium (500 μL) containing compound or DMSO was added to each well (final DMSO concentration for each treatment was 0.2%). Cells were treated with single treatment as follows: Compound 1 was tested at final concentrations of 0.1 and 0.3 μM. 5-AZA was tested at 3 μM. Combinations of Compound 1 at 0.1 and 0.3 μM were tested with 3 μM 5-AZA. Cell treatments were set up in triplicate. Cells were incubated for 8-10 days at 37° C. in a 5% CO2 atmosphere. Photographs (2× magnification) of each well were taken using a Nikon DXM1200 Digital Camera and Nikon ACT1 software and saved as a TIFF file. ImageQuant TL (GE Healthcare; Piscataway, N.J.) Colony Count Software was used to count colonies.
(§4) Significance versus the DMSO control was calculated using One Way ANOVA and Dunnett's Post test or unpaired t tests using GraphPad Prism v5.01. To evaluate the combinatory effect, data from the three independent experiments were analyzed by comparing the combinatory response against the theoretical additive response of the two agents.

Test [2] relates to SK-Hep-1 cells. The test is described as above. The test is classed as cell-based, Human. The conditions noted are these: single agent. The protocol:
as §1, §2, §3, §4

Test [3] deals with Caov-3. The experiment in a line: Cell viability (CellTiter-Glo) and combination index, ovarian cell line. As to conditions: combination with VIDAZA, 3 days, CalcuSyn, Chou-Talalay. The test is classed as cell-based. The protocol:
(§5) Cell viability was assessed using the Cell Titer-Glo® Luminescent Cell Viability Assay, Catalog Number G7570 (Promega Corporation, Madison, Wis.). The assay is a homogenous method of determining the number of viable cells in culture based on quantitation of the adenosine triphosphate (ATP) present, an indicator of metabolically active cells. The homogenous assay procedure involves adding the single reagent (CellTiter-Glo Reagent) directly to cells cultured in serum-supplemented medium. Cells were plated into a 96-well flat bottom plate (Costar Catalog Number 33595) at densities that were previously optimized for each cell line. The cells were incubated overnight in 5% CO2 at 37° C. The following day, compound dilutions were prepared and all concentrations were assayed in triplicate. The cells were incubated with a TOR kinase inhibitor or a TOR kinase inhibitor and a second active agent, in 5% CO2 at 37° C. for 3 days. After a 3-day incubation period, 100 μL, of CellTiter-Glo reagent was added to each well for 2 min with shaking and further incubated for 10 min (no shaking) at room temperature to stabilize the signal. The luminescence was measured on the VICTOR X2 multilabel plate reader. The percent growth inhibition was calculated using the DMSO control in the same plate (no compound) response as 100% cell growth. For single compound treatments (TORKi and second active agents separately), the average values from triplicates were plotted to obtain IC50 values using software XLfit from IDBS. The formula used for determining IC50 in XLfit was model number 205, which utilizes a 4 Parameter Logistic Model or Sigmoidal Dose-Response Model to calculate the IC50 values.
(§6) The cell viability assay was first performed with the TOR kinase inhibitor and the individual second active agents, to determine the dose range for subsequent combination studies. […] The TOR kinase inhibitor and the second active agent were each added to one well containing a final concentration of 0.2% DMSO (in triplicate). In the same plate in triplicate, the cells were treated with the TOR kinase inhibitor and each second active agent either simultaneously or sequentially (containing 0.2% DMSO). The number of cells affected by compound treatment was normalized to the DMSO control (100% viability) and the data was imported into the CalcuSyn software (V2.1, Biosoft). Synergism was quantitated by the combination index (CI) using CalcuSyn according to Chou-Talalay's CI method with mathematical modeling and simulations. […] ED50 is the median effect dose at which a 50% growth inhibition is achieved.

In test [4] the test system is Ovcar-8. The description is as above. The test is classed as cell-based. As to conditions: combination with VIDAZA, 3 days, CalcuSyn, Chou-Talalay. The procedure: as §5, §6
Test [5] concerns Ovcar-4. Described as above. As to conditions: combination with VIDAZA, 3 days, CalcuSyn, Chou-Talalay. The test is classed as cell-based. The procedure: as §5, §6
In test [6] the test system is Ovcar-5. The test is described as above. As to conditions: combination with VIDAZA, 3 days, CalcuSyn, Chou-Talalay. The test is classed as cell-based. The protocol:
as §5, §6

For test [7], the system named is Ovcar-3. Described as above. The test is classed as cell-based. The conditions noted are these: combination with VIDAZA, 3 days, CalcuSyn, Chou-Talalay. The protocol: as §5, §6
In test [8] the test system is seventeen breast cancer cell line panel. Put plainly: Anti-proliferation assay (ATPLite), breast cancer cell line panel. The test is classed as cell-based. As to conditions: cell lines where inhibition levels greater than fifty percent were reached; 72 h; read-out: median GI50. The procedure:
Cells were thawed from a liquid nitrogen preserved state. Once cells expanded and divided at their expected doubling times, screening began.
Cells were equilibrated in assay plates via centrifugation and placed in incubators attached to the Dosing Modules at 37° C. for twenty-four hours before treatment. […] These T zero (T0) plates were read using ultra-sensitive luminescence on Envision Plate Readers. Treated assay plates were incubated with compound (single compound or combination) for seventy-two hours. After seventy-two hours, plates were developed for endpoint analysis using ATPLite. All data points were collected via automated processes; quality controlled; and analyzed. Assay plates were accepted if they passed the following quality control standards: relative luciferase values were consistent throughout the entire experiment, Z-factor scores were greater than 0.6, untreated/vehicle controls behaved consistently on the plate. The calculation for synergy score is provided below.
Growth Inhibition (GI) was used as a measure of cell viability. The cell viability of vehicle was measured at the time of dosing (T0) and after seventy-two hours (T72). A GI reading of 0% represents no growth inhibition—cells treated with compound and T72 vehicle signals are matched. […] GI was calculated by applying the following test and equation: If T<V0:100*[1−(T−V0)/V0] […]

In test [9] the test system is subjects with higher-risk MDS. As to conditions: Phase III study, administered subcutaneously; cited from earlier work.
[10] abbreviates: concentrations of 0.1 to 100 μM.

On to `CO[C@H]1CC[C@H](N2C(=O)CNc3ncc(-c4ccc(C(C)(C)O)nc4)nc32)CC1` [Compound 1, 7-(6-(2-hydroxypropan-2-yl)pyridin-3-yl)-1-((1r,4r)-4-methoxycyclohexyl)-3,4-dihydropyrazino-[2,3-b]pyrazin-2(1H)-one], for which the colony formation is reported as 74 % of control in test [1] (0.1 μM); 57 % of control in test [1] (0.3 μM); 33 % of control in test [1] (1 μM); 24 % of control in [1] (3 μM); 16 % of control in test [1] (10 μM); 11 % of control in [1] (30 μM). Moreover, in [2] (0.3-30 μM, 8-10 days), the colony formation is 0-45 % of control. Also, the anti-colony forming activity result in test [1] (setting [10]) was “dose-dependent and significant anti-colony forming activity”; in test [2] (setting [10]), “dose-dependent and significant anti-colony forming activity”. Also, the “inhibition of colony formation” value in test [2] (3 μM and higher) is given as 100%. Moreover, the “Combination index (CI) at the ED50” value is reported as 1.08 in [3]; 0.99 in test [4]; 0.99 in test [5]; 0.92 in test [6]; 1.23 in test [7].
In general, GI50 refers to the concentration that inhibits growth by half. With `CCN1C(=O)CNc2ncc(-c3ccc(-c4nc[nH]n4)nc3C)nc21` [Compound 2, 1-ethyl-7-(2-methyl-6-(1H-1,2,4-triazol-3-yl)pyridin-3-yl)-3,4-dihydropyrazino[2,3-b]pyrazin-2(1H)-one], in test [8], the GI50 is 140 nM.
As to `Cc1nc(-c2nnc[nH]2)ccc1-c1cnc2c(n1)N(CCC1CCOCC1)C(=O)CN2` [Compound 3, 7-(2-methyl-6-(4H-1,2,4-triazol-3-yl)pyridin-3-yl)-1-(2-(tetrahydro-2H-pyran-4-yl)ethyl)-3,4-dihydropyrazino[2,3-b]pyrazin-2(1H)-one], the “Combination index (CI) at the ED50” value in [3] was 0.92; in test [4], 0.81; in test [5], 0.61; in test [6], 0.76; in test [7] it was 0.55.
As to `Nc1ncn([C@@H]2O[C@H](CO)[C@@H](O)[C@H]2O)c(=O)n1` [Compound 5-AZA, 4-amino-1-β-D-ribofuranosyl-1,3,5-triazin-2(1H)-one, reference compound], the “survival and time to AML transformation or death” value in test [9] is “significantly prolonged survival and time to AML transformation or death”. Also, the colony formation in test [1] (at 1, 3 and 10 μM) is listed as 43-76 % of control; in test [2] (10 μM, 8 days), 38 % of control.
